Here are results for 34 compounds from US12441726B2, “Compounds and uses thereof” (Foghorn Therapeutics Inc., priority 2020, dated 2025).

Like-named read-outs stand apart in the source and are kept apart here.

The IC50 is the concentration at which inhibition is half-maximal.

One experiment addresses BRM (Homo sapiens, UniProt P51531). Briefly: ATPase catalytic activity assay (ADP-Glo), BRM. Conditions: 30 nM BRM, 400 μM ATP; for IC50: BRM ATPase: IC50 (uM). (ADP-Glo first removes unused ATP, then detects ADP through luciferase.)
The target in another experiment is BRG-1 (Homo sapiens, UniProt P51532). The experiment in a line: ATPase catalytic activity assay (ADP-Glo), BRG-1. Conditions: for Emax: 1 h, read-out: BRG1 Max % Inhibition, ADP-Glo, 30 nM BRG-1, 400 μM ATP.
BRG-1, sequence (P51532 whole entry): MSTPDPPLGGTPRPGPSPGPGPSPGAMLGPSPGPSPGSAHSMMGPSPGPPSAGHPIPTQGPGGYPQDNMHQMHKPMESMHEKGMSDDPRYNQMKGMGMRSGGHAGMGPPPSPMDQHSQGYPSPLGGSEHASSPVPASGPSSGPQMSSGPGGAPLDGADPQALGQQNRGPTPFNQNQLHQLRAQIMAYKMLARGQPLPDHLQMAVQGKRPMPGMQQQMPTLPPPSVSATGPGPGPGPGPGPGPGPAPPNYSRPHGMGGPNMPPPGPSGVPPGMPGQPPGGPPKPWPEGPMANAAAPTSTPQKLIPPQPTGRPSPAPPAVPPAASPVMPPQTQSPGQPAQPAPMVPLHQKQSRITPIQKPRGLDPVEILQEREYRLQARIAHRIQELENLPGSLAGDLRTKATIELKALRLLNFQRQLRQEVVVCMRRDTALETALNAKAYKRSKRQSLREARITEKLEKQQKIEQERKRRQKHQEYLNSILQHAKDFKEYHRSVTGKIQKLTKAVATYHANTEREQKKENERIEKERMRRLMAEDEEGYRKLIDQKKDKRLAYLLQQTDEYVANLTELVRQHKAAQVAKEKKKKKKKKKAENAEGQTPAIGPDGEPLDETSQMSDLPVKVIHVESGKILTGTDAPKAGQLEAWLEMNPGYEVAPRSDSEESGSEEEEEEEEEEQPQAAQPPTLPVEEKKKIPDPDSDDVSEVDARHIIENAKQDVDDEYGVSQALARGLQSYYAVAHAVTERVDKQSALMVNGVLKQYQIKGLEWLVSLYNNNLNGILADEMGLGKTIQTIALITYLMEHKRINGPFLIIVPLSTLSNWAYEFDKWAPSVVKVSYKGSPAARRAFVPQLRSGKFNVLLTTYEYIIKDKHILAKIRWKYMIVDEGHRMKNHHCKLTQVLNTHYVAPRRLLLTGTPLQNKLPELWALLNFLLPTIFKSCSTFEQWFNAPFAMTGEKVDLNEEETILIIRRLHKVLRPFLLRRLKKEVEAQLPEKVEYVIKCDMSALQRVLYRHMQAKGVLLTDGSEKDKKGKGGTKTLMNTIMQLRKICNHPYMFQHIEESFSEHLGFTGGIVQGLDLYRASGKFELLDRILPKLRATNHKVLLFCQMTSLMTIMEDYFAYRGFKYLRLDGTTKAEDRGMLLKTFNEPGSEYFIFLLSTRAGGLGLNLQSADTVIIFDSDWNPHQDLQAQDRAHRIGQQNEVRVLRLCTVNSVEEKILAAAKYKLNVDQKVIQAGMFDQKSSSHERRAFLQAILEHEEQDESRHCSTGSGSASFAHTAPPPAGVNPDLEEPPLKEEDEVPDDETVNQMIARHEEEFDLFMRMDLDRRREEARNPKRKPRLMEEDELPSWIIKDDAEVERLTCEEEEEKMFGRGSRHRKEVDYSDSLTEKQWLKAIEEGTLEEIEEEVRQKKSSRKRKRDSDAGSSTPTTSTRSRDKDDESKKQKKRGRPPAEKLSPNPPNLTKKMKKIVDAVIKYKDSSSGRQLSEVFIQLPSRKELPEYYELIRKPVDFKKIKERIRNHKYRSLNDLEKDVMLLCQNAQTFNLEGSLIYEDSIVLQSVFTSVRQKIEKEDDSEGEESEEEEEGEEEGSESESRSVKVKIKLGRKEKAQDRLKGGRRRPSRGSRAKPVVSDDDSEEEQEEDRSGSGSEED

BRM, sequence (P51531 whole entry): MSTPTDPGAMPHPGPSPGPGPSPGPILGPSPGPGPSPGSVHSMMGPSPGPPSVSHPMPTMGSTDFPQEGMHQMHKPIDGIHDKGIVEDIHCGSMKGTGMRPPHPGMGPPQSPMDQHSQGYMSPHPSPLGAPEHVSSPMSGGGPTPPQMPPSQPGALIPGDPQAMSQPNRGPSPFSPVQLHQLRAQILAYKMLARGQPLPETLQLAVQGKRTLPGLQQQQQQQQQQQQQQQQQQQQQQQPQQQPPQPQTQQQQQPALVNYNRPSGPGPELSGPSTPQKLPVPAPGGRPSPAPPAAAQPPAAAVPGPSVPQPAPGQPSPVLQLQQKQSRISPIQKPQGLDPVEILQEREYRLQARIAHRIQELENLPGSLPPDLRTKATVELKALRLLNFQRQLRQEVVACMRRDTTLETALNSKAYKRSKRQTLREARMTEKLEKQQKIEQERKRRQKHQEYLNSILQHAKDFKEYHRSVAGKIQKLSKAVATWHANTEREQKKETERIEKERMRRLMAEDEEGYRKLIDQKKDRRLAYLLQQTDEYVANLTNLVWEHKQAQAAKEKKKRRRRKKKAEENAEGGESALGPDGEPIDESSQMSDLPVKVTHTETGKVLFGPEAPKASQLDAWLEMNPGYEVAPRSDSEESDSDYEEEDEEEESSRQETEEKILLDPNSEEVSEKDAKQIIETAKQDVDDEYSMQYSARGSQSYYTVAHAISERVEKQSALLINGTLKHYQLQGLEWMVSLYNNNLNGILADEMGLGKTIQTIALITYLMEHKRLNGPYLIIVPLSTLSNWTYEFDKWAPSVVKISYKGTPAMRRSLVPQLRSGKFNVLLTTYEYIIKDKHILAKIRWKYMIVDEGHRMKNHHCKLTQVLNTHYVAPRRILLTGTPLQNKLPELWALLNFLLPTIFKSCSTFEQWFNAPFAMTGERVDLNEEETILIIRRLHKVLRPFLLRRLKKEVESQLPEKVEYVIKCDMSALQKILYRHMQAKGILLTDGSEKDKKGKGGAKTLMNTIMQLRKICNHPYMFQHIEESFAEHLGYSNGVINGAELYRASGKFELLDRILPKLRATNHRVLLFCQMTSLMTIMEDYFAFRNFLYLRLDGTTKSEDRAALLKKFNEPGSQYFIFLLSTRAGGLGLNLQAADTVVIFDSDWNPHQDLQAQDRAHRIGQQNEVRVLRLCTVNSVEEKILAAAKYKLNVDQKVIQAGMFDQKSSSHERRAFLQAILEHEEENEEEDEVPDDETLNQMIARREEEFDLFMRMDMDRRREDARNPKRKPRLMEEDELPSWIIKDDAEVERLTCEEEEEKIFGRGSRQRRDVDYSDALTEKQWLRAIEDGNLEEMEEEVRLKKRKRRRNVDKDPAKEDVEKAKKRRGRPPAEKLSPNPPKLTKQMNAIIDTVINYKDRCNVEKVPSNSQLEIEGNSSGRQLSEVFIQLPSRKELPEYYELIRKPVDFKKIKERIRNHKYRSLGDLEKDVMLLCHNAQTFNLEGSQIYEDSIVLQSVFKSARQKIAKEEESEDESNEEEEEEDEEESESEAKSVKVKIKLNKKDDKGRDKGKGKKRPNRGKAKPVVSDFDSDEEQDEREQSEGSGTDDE

Turning to `Cn1ccc(-c2ccc3cnc(CNC(=O)c4ccc5c(c4)[C@](C)(C#N)COC5)cc3n2)n1` [Compound 113], on BRM, the “BRM Max % Inhibition” value was 79% and the IC50 is > 1 µM. For the same compound, on BRG-1, the IC50 is > 1000 nM and the Emax was 32%.
With `C[C@@]1(O)COCc2ccc(C(=O)NCc3cc4nc(-c5ccccc5)sc4cn3)cc21` [Compound 119], at BRM, the “BRM Max % Inhibition” value turned out to be 81% and the IC50 is > 1 µM. On BRG-1, the IC50 is > 1000 nM and the Emax amounted to 18%.
With `C[C@@H]1CN(c2nccc(-c3ccc4cnc(CNC(=O)c5ccc6c(c5)[C@](C)(C#N)COC6)cc4n3)n2)CCO1` [Compound 362], at BRM, the “BRM Max % Inhibition” value was determined as 99% and the IC50 is < 0.1 µM. At BRG-1, the IC50 is > 1000 nM and the Emax is 98%.
The matching figures for `COc1nn(C)cc1-c1nc2cc(CNC(=O)c3ccc4c(c3)[C@](C)(C#N)COC4)ncc2s1` [Compound 274]: 93%, 0.1 to 0.5 µM, 500 to 1000 nM and 45%.
On to `C[C@@]1(C#N)COCc2ccc(C(=O)NCc3cc4c(cn3)CCN(c3ccnc(N5CCOCC5)n3)C4)cc21` [Compound 330], for which, on BRM, the “BRM Max % Inhibition” value came out at 93% and the IC50 was 0.1 to 0.5 µM. Besides, at BRG-1, the IC50 lay within 500 to 1000 nM and the Emax was 64%.
On to `CN(C)C(=O)c1cccc(-c2ccc3cnc(CNC(=O)c4ccc5c(c4)[C@](C)(C#N)COC5)cc3n2)c1` [Compound 490], for which, at BRM, the “BRM Max % Inhibition” value was determined as 93% and the IC50 fell in the range of 0.1 to 0.5 µM. In addition, at BRG-1, the IC50 was > 1000 nM and the Emax stood at 40%.
For the compound `Cc1cc(-c2ccc3cnc(CNC(=O)c4ccc5c(c4)[C@](C)(C#N)COC5)cc3n2)n[nH]1` [Compound 264], on BRM, the “BRM Max % Inhibition” value came to 98% and the IC50 is 0.1 to 0.5 µM. Moreover, on BRG-1, the IC50 is 500 to 1000 nM and the Emax is 72%.
The matching figures for `Cn1nccc(-c2ccc3cnc(CNC(=O)c4ccc5c(c4)[C@](C)(F)COC5)cc3n2)c1=O` [Compound 293]: 88%, 0.1 to 0.5 µM, > 1000 nM and 33%.
Regarding `C[C@@]1(C#N)COCc2ccc(C(=O)NCc3cc4nc(-c5ccn6nccc6c5)ccc4cn3)cc21` [Compound 459], at BRM, the “BRM Max % Inhibition” value worked out at 97% and the IC50 is < 0.1 µM. Also, on BRG-1, the IC50 is 100 to 500 nM and the Emax was 86%.
The matching figures for `CN(C)C(=O)c1cccc(C#Cc2ccnc(CNC(=O)c3ccc4c(c3)[C@](C)(C#N)COC4)c2)c1` [Compound 84]: 89%, 0.1 to 0.5 µM, 500 to 1000 nM and 53%.
The matching figures for `COc1nn([C@H]2C[C@H](F)C2)cc1-c1ccc2cnc(CNC(=O)c3ccc4c(c3)[C@](C)(C#N)COC4)cc2n1` [Compound 185]: 99%, < 0.1 µM, 100 to 500 nM and 87%.
The matching figures for `C[C@@]1(C#N)COCc2ccc(C(=O)NCc3cc(OCc4cc(F)c5c(c4)CCO5)ccn3)cc21` [Compound 45]: 96%, < 0.1 µM, 500 to 1000 nM and 79%.
Turning to `O=C(NCc1cc2nc(-c3cncc(C4CC4)n3)ccc2cn1)c1cnc2c(c1)[C@@](F)(C(F)F)COC2` [Compound 229], on BRM, the “BRM Max % Inhibition” value stood at 100% and the IC50 is < 0.1 µM. For the same compound, at BRG-1, the IC50 was in the range of 100 to 500 nM and the Emax was 90%.
The matching figures for `COc1nn(C2COC2)cc1-c1ccc2cnc(CNC(=O)c3ccc4c(c3)[C@](C)(F)COC4)cc2n1` [Compound 201]: 99%, < 0.1 µM, 500 to 1000 nM and 76%.
In the case of `COc1cc(C2COC2)ccc1-c1ccc2cnc(CNC(=O)c3ccc4c(c3)[C@](C)(C#N)COC4)cc2n1` [Compound 175], at BRM, the “BRM Max % Inhibition” value is 97% and the IC50 was < 0.1 µM. Besides, on BRG-1, the IC50 is 100 to 500 nM and the Emax was determined as 86%.
With `COC[C@H](NC(=O)c1ccc2c(c1)[C@](C)(C#N)COC2)c1cc(C#Cc2ccccc2)ccn1` [Compound 43], on BRM, the “BRM Max % Inhibition” value amounted to 68% and the IC50 was > 1 µM. In addition, on BRG-1, the half-inhibitory concentration (IC50) was > 1000 nM and the Emax worked out at 34%.
Take `COC(C)(C)C#Cc1cccc(-c2ccc3cnc(CNC(=O)c4ccc5c(c4)[C@](C)(C#N)COC5)cc3n2)n1` [Compound 163]: at BRM, the “BRM Max % Inhibition” value came to 98% and the IC50 was < 0.1 µM. Moreover, on BRG-1, the IC50 was 100 to 500 nM and the Emax came out at 87%.
In the same order, the values of `COc1cnccc1-c1ccc2cnc(CNC(=O)c3ccc4c(c3)[C@](C)(C#N)COC4)cc2n1` [Compound 507] are 97%, < 0.1 µM, 100 to 500 nM and 77%.
In the same order, the values of `O=C(NCc1cc2nc(-c3cncc(C4CC4)n3)ccc2cn1)c1cc(F)c2c(c1)[C@](F)(C(F)F)COC2` [Compound 237] are 100%, < 0.1 µM, 100 to 500 nM and 92%.
In the same order, the values of `COC1(c2ccccc2)CCN(c2ccnc(CNC(=O)c3ccc4c(c3)[C@](C)(C#N)COC4)c2)C1` (stereo partly shown) [Compound 58] are 92%, 0.1 to 0.5 µM, 500 to 1000 nM and 50%.
On to `COc1cccc(C#Cc2ccnc(CNC(=O)c3ccc4c(c3)[C@](C)(C#N)COC4)c2)c1` [Compound 2], for which, on BRM, the “BRM Max % Inhibition” value was 96% and the IC50 was 0.1 to 0.5 µM. In addition, at BRG-1, the IC50 was > 1000 nM and the Emax turned out to be 65%.
The matching figures for `COCCN1CCN(c2cccc(-c3ccc4cnc(CNC(=O)c5ccc6c(c5)[C@](C)(C#N)COC6)cc4n3)n2)CC1` [Compound 132]: 97%, 0.1 to 0.5 µM, 500 to 1000 nM and 71%.
The matching figures for `C[C@@]1(C#N)COCc2ccc(C(=O)NCc3cc([C@H]4C[C@@H](c5ccccc5)C4)ccn3)cc21` [Compound 19]: 97%, 0.1 to 0.5 µM, 500 to 1000 nM and 89%.
On to `[2H]C1([2H])OC[C@@](C)(F)c2cc(C(=O)NCc3cc4nc(-c5cncc(C6CC6)n5)ccc4cn3)cnc21` [Compound 211], for which, on BRM, the “BRM Max % Inhibition” value came to 97% and the IC50 is 0.1 to 0.5 µM. At BRG-1, the IC50 fell in the range of 500 to 1000 nM and the Emax came to 82%.
As to `C[C@@]1(C#N)COCc2ccc(C(=O)NCc3cc4nc(-c5ccccc5)ccc4cn3)cc21` [Compound 85], on BRM, the “BRM Max % Inhibition” value was 98% and the IC50 is < 0.1 µM. Moreover, at BRG-1 (ADP-Glo, 30 nM BRG-1, 400 μM ATP), the “BRG1 Max % Inhibition” value turned out to be 77%. Besides, the IC50 at BRG-1 (read-out: BRG1 ATPase: IC50, ADP-Glo, 30 nM BRG-1, 400 μM ATP) is > 1000 nM.
As for `COc1cc(C)nn1-c1ccc2cnc(CNC(=O)c3ccc4c(c3)[C@](C)(C#N)COC4)cc2n1` [Compound 195], at BRM, the “BRM Max % Inhibition” value was 84% and the IC50 was 0.1 to 0.5 µM. For the same compound, at BRG-1, the half-maximal inhibitory concentration (IC50) is > 1000 nM and the Emax was found to be 47%.
The matching figures for `COC(=O)c1cccc(C#Cc2ccnc(CNC(=O)c3ccc4c(c3)[C@](C)(C#N)COC4)c2)c1` [Compound 3]: 99%, < 0.1 µM, > 1000 nM and 78%.
In the same order, the values of `Cn1ccc2c(-c3ccc4cnc(CNC(=O)c5ccc6c(c5)[C@](C)(C#N)COC6)cc4n3)cc(F)cc21` [Compound 171] are 98%, < 0.1 µM, 100 to 500 nM and 92%.
The matching figures for `O=C(NCc1cc(C#Cc2ccccc2)ccn1)c1cccc(C2(C(F)F)COC2)c1` [Compound 13]: 84%, > 1 µM, > 1000 nM and 44%.
Regarding `CN(C)c1cccn(-c2ccc3cnc(CNC(=O)c4ccc5c(c4)[C@](C)(C#N)COC5)cc3n2)c1=O` [Compound 281], at BRM, the “BRM Max % Inhibition” value was 92% and the IC50 lay within 0.1 to 0.5 µM. Also, at BRG-1, the IC50 is > 1000 nM and the Emax was determined as 48%.
The matching figures for `C[C@@]1(C#N)COCc2ccc(C(=O)NCc3cc(OCC4CCOCC4)ccn3)cc21` [Compound 61]: 85%, 0.1 to 0.5 µM, > 1000 nM and 25%.
The matching figures for `Cn1nc(-c2ccc3cnc(CNC(=O)c4ccc5c(c4)[C@](C)(C#N)COC5)cc3n2)cc1C(F)F` [Compound 162]: 91%, 0.1 to 0.5 µM, 500 to 1000 nM and 59%.
In the case of `C[C@@]1(C#N)COCc2ccc(C(=O)NCc3cnc4ccc(-c5ccccc5)nc4c3)cc21` [Compound 106], on BRM, the “BRM Max % Inhibition” value was determined as 80% and the IC50 was > 1 µM. Besides, on BRG-1, the IC50 was > 1000 nM and the Emax stood at 32%.
The matching figures for `COc1cncc(-c2ccc3cnc(CNC(=O)c4ccc5c(c4)[C@](C)(C#N)COC5)cc3n2)c1` [Compound 482]: 90%, 0.1 to 0.5 µM, 500 to 1000 nM and 55%.
